Reference: the NIST ThermoML archive (doi:10.1016/j.jct.2007.04.005)

Test: xn = mol fraction of the nth substance listed
Settings: 318.15 K, Liquid

CCCCCCCCC [nonane] + C1CCCCC1
Settings	mass density [kg/m3]
100 kPa, x2 = 0	698.2
100 kPa, x2 = 0.09303	701
100 kPa, x2 = 0.2009	704.8
100 kPa, x2 = 0.3051	708.8
100 kPa, x2 = 0.417	713.5
100 kPa, x2 = 0.512	718
100 kPa, x2 = 0.5996	722.8
100 kPa, x2 = 0.7052	729.3
100 kPa, x2 = 0.7993	736.2
100 kPa, x2 = 0.9039	744.9
101 kPa, x2 = 0	698.48
101 kPa, x2 = 0.1022	701.67
101 kPa, x2 = 0.1548	703.43
101 kPa, x2 = 0.2009	705.04
101 kPa, x2 = 0.2591	707.2
101 kPa, x2 = 0.3306	710.05
101 kPa, x2 = 0.4003	713.04
101 kPa, x2 = 0.4596	715.79
101 kPa, x2 = 0.5321	719.42
101 kPa, x2 = 0.612	723.86
101 kPa, x2 = 0.6649	727.05
101 kPa, x2 = 0.7224	730.84
101 kPa, x2 = 0.8047	736.83
101 kPa, x2 = 0.8686	742.07
101 kPa, x2 = 0.9405	748.72
2130 kPa, x2 = 0	699.9
2130 kPa, x2 = 0.09303	702.7
2130 kPa, x2 = 0.2009	706.5
2130 kPa, x2 = 0.3051	710.6
2130 kPa, x2 = 0.417	715.2
2130 kPa, x2 = 0.512	719.8
2130 kPa, x2 = 0.5996	724.6
2130 kPa, x2 = 0.7052	731.1
2130 kPa, x2 = 0.7993	738
2130 kPa, x2 = 0.9039	746.7
4150 kPa, x2 = 0	701.8
4150 kPa, x2 = 0.09303	704.7
4150 kPa, x2 = 0.2009	708.4
4150 kPa, x2 = 0.3051	712.5
4150 kPa, x2 = 0.417	717.2
4150 kPa, x2 = 0.512	721.7
4150 kPa, x2 = 0.5996	726.6
4150 kPa, x2 = 0.7052	733.1
4150 kPa, x2 = 0.7993	740
4150 kPa, x2 = 0.9039	748.7
6180 kPa, x2 = 0	703.6
6180 kPa, x2 = 0.09303	706.4
6180 kPa, x2 = 0.2009	710.2
6180 kPa, x2 = 0.3051	714.3
6180 kPa, x2 = 0.417	719
6180 kPa, x2 = 0.512	723.6
6180 kPa, x2 = 0.5996	728.4
6180 kPa, x2 = 0.7052	734.9
6180 kPa, x2 = 0.7993	741.8
6180 kPa, x2 = 0.9039	750.6
8210 kPa, x2 = 0	705.3
8210 kPa, x2 = 0.09303	708.2
8210 kPa, x2 = 0.2009	712
8210 kPa, x2 = 0.3051	716.1
8210 kPa, x2 = 0.417	720.7
8210 kPa, x2 = 0.512	725.3
8210 kPa, x2 = 0.5996	730.2
8210 kPa, x2 = 0.7052	736.7
8210 kPa, x2 = 0.7993	743.6
8210 kPa, x2 = 0.9039	752.4
10230 kPa, x2 = 0	707
10230 kPa, x2 = 0.09303	709.9
10230 kPa, x2 = 0.2009	713.7
10230 kPa, x2 = 0.3051	717.8
10230 kPa, x2 = 0.417	722.5
10230 kPa, x2 = 0.512	727
10230 kPa, x2 = 0.5996	731.9
10230 kPa, x2 = 0.7052	738.5
10230 kPa, x2 = 0.7993	745.4
10230 kPa, x2 = 0.9039	754.2
11250 kPa, x2 = 0	707.8
11250 kPa, x2 = 0.09303	710.7
11250 kPa, x2 = 0.2009	714.5
11250 kPa, x2 = 0.3051	718.6
11250 kPa, x2 = 0.417	723.3
11250 kPa, x2 = 0.512	727.9
11250 kPa, x2 = 0.5996	732.8
11250 kPa, x2 = 0.7052	739.4
11250 kPa, x2 = 0.7993	746.3
11250 kPa, x2 = 0.9039	755.1
12260 kPa, x2 = 0	708.6
12260 kPa, x2 = 0.09303	711.6
12260 kPa, x2 = 0.2009	715.4
12260 kPa, x2 = 0.3051	719.5
12260 kPa, x2 = 0.417	724.2
12260 kPa, x2 = 0.512	728.8
12260 kPa, x2 = 0.5996	733.7
12260 kPa, x2 = 0.7052	740.3
12260 kPa, x2 = 0.7993	747.1
12260 kPa, x2 = 0.9039	756
14290 kPa, x2 = 0	710.3
14290 kPa, x2 = 0.09303	713.2
14290 kPa, x2 = 0.2009	717
14290 kPa, x2 = 0.3051	721.1
14290 kPa, x2 = 0.417	725.8
14290 kPa, x2 = 0.512	730.4
14290 kPa, x2 = 0.5996	735.3
14290 kPa, x2 = 0.7052	741.9
14290 kPa, x2 = 0.7993	748.9
14290 kPa, x2 = 0.9039	757.7
16310 kPa, x2 = 0	711.9
16310 kPa, x2 = 0.09303	714.8
16310 kPa, x2 = 0.2009	718.7
16310 kPa, x2 = 0.3051	722.7
16310 kPa, x2 = 0.417	727.5
16310 kPa, x2 = 0.512	732
16310 kPa, x2 = 0.5996	737
16310 kPa, x2 = 0.7052	743.6
16310 kPa, x2 = 0.7993	750.5
16310 kPa, x2 = 0.9039	759.4
18340 kPa, x2 = 0	713.5
18340 kPa, x2 = 0.09303	716.4
18340 kPa, x2 = 0.2009	720.2
18340 kPa, x2 = 0.3051	724.3
18340 kPa, x2 = 0.417	729.1
18340 kPa, x2 = 0.512	733.6
18340 kPa, x2 = 0.5996	738.6
